# Experimental data as given in patent US20240318141A1, “MATURATION AGENT” (Orizuru Therapeutics, Inc., priority 2021, published 2024).
# Several values for one entry are separate records, joined by “and”; a condition that tells them apart may be missing. Identical values can stand only once.
# Assays:
# [1] = tested on: non-endocrine cells in insulin-producing cell population (QHJI-I14s04 iPS cell line); assay: Cisplatin or docetaxel treatment in step 6), then extended culture in basal medium containing EGF (Example 2); format: cell-based, human
# Description: The differentiation of a QHJI-I14s04 iPS cell line into an insulin-producing cell population was induced by the three-dimensional culture method using a bioreactor according to steps 1) to 6) described above and the previous report (Nature Biotechnology 2014; 32: 1121-1133). Specifically, the iPS cells were subjected to the first culture in a medium (DMEM/1% B-27 (INS+)/Penicillin Streptomycin/dimethyl sulfoxide) containing differentiation-inducing factors (GSK3β inhibitor, ROCK inhibitor and low dose of activin A) under conditions causing action of insulin, and subsequently subjected to the second culture in a medium (DMEM/1% B-27 (INS−)/Penicillin Streptomycin/dimethyl sulfoxide) containing a differentiation-inducing factor (low dose of activin A) under conditions causing no action of insulin to obtain a definitive endoderm cell population. Further, a pancreatic endocrine progenitor cell population obtained by the induction of differentiation from the definitive endoderm cell population was cultured in a medium (Improved MEM/1% B-27 (INS+)/Penicillin Streptomycin) containing differentiation-inducing factors (ALK5 inhibitor II, T3, LDN, Y-secretase inhibitor RO, and ascorbic acid) and FGF receptor 1 inhibitor (PD-166866) to obtain an insulin-producing cell population.
# An insulin-producing cell population obtained without the addition of cisplatin and docetaxel was used as a control cell population and subjected to extended culture in the same manner as above.
# Marker protein expression (PDX1, CHGA, and Ki67) in each insulin-producing cell population before the start of and after the completion of extended culture was measured by flow cytometry. Samples after the completion of extended culture were collected by sampling three times from the same culture container. The number of cells was measured in an automatic cell counter at the time of sample preparation for flow cytometry, and the total number of cells per mL of the bioreactor was calculated. The number of CHGA-positive cells, the number of PDX1-positive and CHGA-negative cells, and the number of PDX1-negative and CHGA-negative cells were calculated from the obtained total number of cells and the flow cytometry results.
# [2] = tested on: non-endocrine cells in insulin-producing cell population (QHJI-114s04 iPS cell line); assay: Docetaxel treatment of cell population comprising insulin-producing cells, then extended culture in basal medium containing EGF (Example 4); format: cell-based, human; settings: for proportions of PDX1+/CHGA− and PDX1−/CHGA− cells after extended culture involving EGF: with respect to control cell population
# Description: The differentiation of a QHJI-114s04 iPS cell line into an insulin-producing cell population was induced by the three-dimensional culture method using a bioreactor according to steps 1) to 6) described above and the previous report (Nature Biotechnology 2014; 32: 1121-1133). Specifically, the iPS cells were subjected to the first culture in a medium (DMEM/1% B-27 (INS+)/Penicillin Streptomycin/dimethyl sulfoxide) containing differentiation-inducing factors (GSK3β inhibitor, ROCK inhibitor and low dose of activin A) under conditions causing action of insulin, and subsequently subjected to the second culture in a medium (DMEM/1% B-27 (INS−)/Penicillin Streptomycin/dimethyl sulfoxide) containing a differentiation-inducing factor (low dose of activin A) under conditions causing no action of insulin to obtain a definitive endoderm cell population. […] The exchange from the bioreactor to the multiwell plate was carried out in step 6).
# Marker protein expression (PDX1 and CHGA) in each cell population before the start of and after the completion of extended culture was measured by flow cytometry. Marker protein expression (NKX6.1, C-peptide (insulin), PDX1, and CHGA) in the cell population obtained 7 days after the start of step 6) was also measured by flow cytometry. Respective samples were collected by sampling from separate culture containers. The number of cells was measured in an automatic cell counter at the time of sample preparation for flow cytometry, and the total number of cells per well of the multiwell plate was calculated.
# [3] = tested on: immunodeficient NOD/SCID mouse with streptozotocin-induced insulin-deficient diabetes mellitus; assay: In vivo transplantation of insulin-producing cell population prepared by addition of docetaxel: plasma human C-peptide and graft weight (Example 5)
# Protocol: An immunodeficient NOD/SCID mouse was prepared by inducing insulin-deficient diabetes mellitus with streptozotocin. […] After transplantation, a human C-peptide concentration in plasma was measured over time. The graft was excised 6 months after transplantation, and its weight was measured.
# [4] = after extended culture 4 weeks, EGF present, average of three samplings
# [5] = after extended culture 4 weeks, EGF present, single samplings
# [6] = after extended culture involving EGF, with respect to control cell population
# [7] = s6d11 (before extended culture); 3 μM cisplatin or 1 μM docetaxel for 7 days from day 4 of step 6)
# [8] = +Docetaxel 4 days from day 7 (1 μM), s6d11
# [9] = +Docetaxel 4 days from day 7, after extended culture, EGF absent
# [10] = +Docetaxel 4 days from day 7, after extended culture, EGF present
# [11] = +Docetaxel 7 days from day 4 (1 μM), s6d11
# [12] = +Docetaxel 7 days from day 4, after extended culture, EGF absent
# [13] = +Docetaxel 7 days from day 4, after extended culture, EGF present
structure (smiles),measurement,setting,value
"CC(=O)O[C@@]12CO[C@@H]1C[C@H](O)[C@@]1(C)C(=O)[C@H](O)C3=C(C)[C@@H](OC(=O)[C@H](O)[C@@H](NC(=O)OC(C)(C)C)c4ccccc4)C[C@@](O)([C@@H](OC(=O)c4ccccc4)[C@H]21)C3(C)C [Docetaxel, (−)-(1S,2S,3R,4S,5R,7S,8S,10R,13S)-4-Acetoxy-2-benzoyloxy-5,20-epoxy-1,7,10-trihydroxy-9-oxotax-11-en-13-yl (2R,3S)-3-tert-butoxycarbonylamido-2-hydroxy-3-phenylpropionate]",population exhibiting marked increase by extended culture (table footnote),"[1]; 1 μM docetaxel, extended culture with EGF",No population exhibited marked increase by extended culture
same,"The number of cells CHGA+, average",[1]; [4],22 ×10^4 cells/mL
same,"The number of cells PDX+/CHGA−, average",[1]; [4],1.7 ×10^4 cells/mL
same,"The number of cells PDX−/CHGA−, average",[1]; [4],2.8 ×10^4 cells/mL
same,"Total number of cells, average",[1]; [4],27 ×10^4 cells/mL
same,The number of cells CHGA+,[1]; [5],21 ×10^4 cells/mL and 22 ×10^4 cells/mL and 24 ×10^4 cells/mL
same,The number of cells PDX+/CHGA−,[1]; [5],2.0 ×10^4 cells/mL and 1.5 ×10^4 cells/mL
same,The number of cells PDX−/CHGA−,[1]; [5],3.1 ×10^4 cells/mL and 2.7 ×10^4 cells/mL
same,Total number of cells,[1]; [5],26 ×10^4 cells/mL and 28 ×10^4 cells/mL
same,proportion of PDX1-negative and CHGA-negative (PDX1−/CHGA−) cells,[1]; [6],drastically decreased
same,proportion of PDX1-positive and CHGA-negative (PDX1+/CHGA−) cells,[1]; [6],drastically decreased
same,total number of cells after extended culture (in words),[1]; extended culture involving EGF,decreased
same,The number of cells CHGA+,[1]; [7],73 ×10^4 cells/mL
same,The number of cells PDX+/CHGA−,[1]; [7],1.3 ×10^4 cells/mL
same,The number of cells PDX−/CHGA−,[1]; [7],0.1 ×10^4 cells/mL
same,Total number of cells,[1]; [7],74 ×10^4 cells/mL
same,number of CHGA-positive endocrine cells after extended culture (in words),[1]; with respect to control cell population,not changed
same,population exhibiting marked increase by extended culture involving EGF (table footnote),[2]; +Docetaxel 4 days from day 7,No population exhibited marked increase by extended culture involving EGF
same,The number of cells CHGA+,[2]; [8],177 ×10^4 cells/well
same,The number of cells PDX+/CHGA−,[2]; [8],0.7 ×10^4 cells/well
same,The number of cells PDX−/CHGA−,[2]; [8],0.9 ×10^4 cells/well
same,Total number of cells,[2]; [8],178 ×10^4 cells/well
same,The number of cells CHGA+,[2]; [9],132 ×10^4 cells/well
same,The number of cells PDX+/CHGA−,[2]; [9],1.5 ×10^4 cells/well
same,The number of cells PDX−/CHGA−,[2]; [9],6.3 ×10^4 cells/well
same,Total number of cells,[2]; [9],140 ×10^4 cells/well
same,The number of cells CHGA+,[2]; [10],144 ×10^4 cells/well and 133 ×10^4 cells/well and 147 ×10^4 cells/well
same,The number of cells PDX+/CHGA−,[2]; [10],1.1 ×10^4 cells/well and 1.3 ×10^4 cells/well and 1.2 ×10^4 cells/well
same,The number of cells PDX−/CHGA−,[2]; [10],5.6 ×10^4 cells/well and 6.6 ×10^4 cells/well and 5.9 ×10^4 cells/well
same,Total number of cells,[2]; [10],151 ×10^4 cells/well and 141 ×10^4 cells/well and 154 ×10^4 cells/well
same,proportions of PDX1+/CHGA− and PDX1−/CHGA− cells after extended culture involving EGF,[2]; +Docetaxel 4 days from day 7,drastically decreased
same,population exhibiting marked increase by extended culture involving EGF (table footnote),[2]; +Docetaxel 7 days from day 4,No population exhibited marked increase by extended culture involving EGF
same,The number of cells CHGA+,[2]; [11],209 ×10^4 cells/well
same,The number of cells PDX+/CHGA−,[2]; [11],0.4 ×10^4 cells/well
same,The number of cells PDX−/CHGA−,[2]; [11],0.8 ×10^4 cells/well
same,Total number of cells,[2]; [11],210 ×10^4 cells/well
same,The number of cells CHGA+,[2]; [12],126 ×10^4 cells/well
same,The number of cells PDX+/CHGA−,[2]; [12],1.5 ×10^4 cells/well
same,The number of cells PDX−/CHGA−,[2]; [12],5.0 ×10^4 cells/well
same,Total number of cells,[2]; [12],132 ×10^4 cells/well
same,The number of cells CHGA+,[2]; [13],132 ×10^4 cells/well and 127 ×10^4 cells/well and 159 ×10^4 cells/well
same,The number of cells PDX+/CHGA−,[2]; [13],0.8 ×10^4 cells/well and 1.5 ×10^4 cells/well
same,The number of cells PDX−/CHGA−,[2]; [13],4.7 ×10^4 cells/well and 2.9 ×10^4 cells/well and 4.8 ×10^4 cells/well
same,Total number of cells,[2]; [13],138 ×10^4 cells/well and 165 ×10^4 cells/well
same,proportions of PDX1+/CHGA− and PDX1−/CHGA− cells after extended culture involving EGF,[2]; +Docetaxel 7 days from day 4,drastically decreased
same,graft weight,[3]; graft excised at 6 months after transplantation,low tendency
same,persistence of human C-peptide secretion after transplantation,"[3]; subcutaneous transplantation, follow-up",continuously confirmed up to 6 months after transplantation
same,human C-peptide secretion in plasma,[3]; subcutaneously transplanted cell population prepared by addition of docetaxel vs prepared without docetaxel,at the same level
